We go through 2 molecules from publication PMC3979046 (Breast Cancer Research : BCR, 2013).

Series [1] relates to HER2+ metastatic breast cancer patients refractory to trastuzumab. Also noted: method as in PMID 22689807. The settings on record: phase 3 trial, 296 patients, no chemotherapy ref 21; cited from earlier work.
Series [2] has as its system patients with HER2+ solid tumors. The following applies: in combination with trastuzumab, true MTD not established. On the procedure: This phase 1, multicenter, open-label, nonrandomized, dose-defining study was conducted in accordance with the Declaration of Helsinki and the International Conference on Harmonisation Good Clinical Practice Guidelines, and was approved by relevant regulatory and independent ethics committees including Memorial Sloan-Kettering Cancer Center’s Institutional Review Board, Mofftt Cancer Center’s Quorum Review Institutional Review Board, and The National Research Ethics Service, The Royal Marsden Research Ethics Committee. Patients provided written consent prior to enrolling in the trial. […] Dose finding was based on toxicity probability intervals. In brief, three patients were first dosed at each level and advanced according to the toxicity probability interval; up to another 10 patients (total of 13 patients at a dose level) could be assigned to one dose, in which case up to four DLT events in the dose level of 13 patients would be considered tolerable. […] Correlation of antitumor activity with PI3K pathway activation events (that is, circulating tumor DNA and mutations) was an exploratory objective of this trial.
Patients were evaluated at baseline and throughout the course of the study using physical examinations, vital signs, ophthalmologic examinations, 12-lead electrocardiogram cardiac monitoring, laboratory tests, and Eastern Cooperative Oncology Group performance status.

Series [3] has as its system HER3. On the set-up: method as in PMID 21215704. The settings on record: via feedback mechanisms ref 11; cited from earlier work.
For series [4] the following is noted: prior phase 1 studies ref 13; cited from earlier work.
Series [5] has as its system cytochrome p450 3A4. The following applies: cited from earlier work.
Series [6] concerns patients with solid tumors. Also noted: method as in PMID 22025163. The following applies: cited from earlier work.
The subject of series [7] is recombinant human AKT1, AKT2 and AKT3. The following applies: cited from earlier work.
The conditions of series [8]: human, in vivo.
Series [9] in a line: Plasma pharmacokinetics of MK-2206 given with trastuzumab. The following applies: for Tmax: human, plasma, oral.

Molecules are shown by their SMILES. Where two headings read alike, the source gives them in different places.

With `CS(=O)(=O)CCNCc1ccc(-c2ccc3ncnc(Nc4ccc(OCc5cccc(F)c5)c(Cl)c4)c3c2)o1` [lapatinib], in [1], the median progression-free survival is 8.1 weeks.

On to `NC1(c2ccc(-c3nc4ccn5c(=O)[nH]nc5c4cc3-c3ccccc3)cc2)CCC1` [MK-2206], for which the entries for the “maximum tolerated dose (MTD)” value in [2] (QOD schedule) and in series [2] (QW schedule) were 60 mg and 135 mg, respectively. For the same molecule, the “effect on HER3” value in series [3] is recorded as “upregulate HER3”. Also, in series [4], the dose proportionality result is “no substantial departure from dose proportionality”. Further, the metabolizing enzyme result in [5] is “metabolized by cytochrome p450 3A4”. Besides, the “most significant dose-limiting toxicity (DLT)” value in series [6] (monotherapy ref 13) is given as “rash”. In addition, the “maximum tolerable dose (MTD)” value in [6] (monotherapy, QOD ref 13) is 60 mg. Besides, the “maximum tolerable dose (MTD), expected” value in series [6] (monotherapy, QW, not established due to early discontinuation ref 13) was “less than 250 mg”. Besides, the off-target kinase activity result in series [7] is reported as “little off-target kinase activities”. In addition, the “relative potency against AKT isoforms” value in [7] (recombinant human isoforms ref 12) is “higher potency against recombinant human AKT1 and AKT2 isoforms than AKT3”. Further, the “patients achieving the 48-hour target of at least 56.8 nM” value in series [8] is ~ 92%. Also, the “patients with trough level at or above the clinical monotherapy efficacy trough target of 56.8 nM” value in [9] (45 mg or 60 mg QOD with trastuzumab) was 11/11. In series [9] (200 mg QW, multiple dosing for 21 to 22 days), the “geometric mean ratio of Cmax (last dose/first dose)” value is listed as 1.30. Also, the Tmax in series [9] lay within 4 to 6 h; in [9] (median time to maximum concentration, 135 mg and 200 mg QW with trastuzumab), 4 to 8 h.
